ChEMBL document CHEMBL5523701, “Structure-based discovery of small molecule inhibitors of FKBP51-Hsp90 protein-protein interaction” (Eur J Med Chem, 2024)
Blank lines part the entries; values can stand above or below the compound they belong to.

Legend:
[1] = target: T1, Peptidyl-prolyl cis-trans isomerase FKBP4 (Homo sapiens, UniProt Q02790); experiment: Inhibition of GST-tagged human FKBP52 expressed in Escherichia coli BL21 (DE3) using NH2-EDASRMEEVD-COOH peptide as substrate preincubated for 15 mins followed by substrate addition measured after 15 mins by Alpha Screen assay
T1 sequence (Q02790 whole entry): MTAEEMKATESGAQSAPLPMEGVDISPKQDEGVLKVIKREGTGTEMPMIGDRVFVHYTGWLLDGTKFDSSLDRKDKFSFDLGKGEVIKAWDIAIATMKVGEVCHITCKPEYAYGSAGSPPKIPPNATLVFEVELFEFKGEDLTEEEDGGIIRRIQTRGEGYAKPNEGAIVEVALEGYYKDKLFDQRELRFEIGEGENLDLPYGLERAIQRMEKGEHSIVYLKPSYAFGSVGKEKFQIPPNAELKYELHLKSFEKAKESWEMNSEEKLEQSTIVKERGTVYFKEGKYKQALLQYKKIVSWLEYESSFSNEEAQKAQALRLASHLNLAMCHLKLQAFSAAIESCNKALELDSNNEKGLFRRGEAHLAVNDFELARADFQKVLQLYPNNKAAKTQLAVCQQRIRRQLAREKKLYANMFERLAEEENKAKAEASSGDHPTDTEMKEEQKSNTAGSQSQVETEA

[2] = target: T2, Peptidyl-prolyl cis-trans isomerase FKBP5 (Homo sapiens, UniProt Q13451); experiment: Inhibition of GST-tagged human FKBP51 expressed in Escherichia coli BL21 (DE3) using NH2-EDASRMEEVD-COOH peptide as substrate preincubated for 15 mins followed by substrate addition measured after 15 mins by Alpha Screen assay
T2 sequence (Q13451 whole entry): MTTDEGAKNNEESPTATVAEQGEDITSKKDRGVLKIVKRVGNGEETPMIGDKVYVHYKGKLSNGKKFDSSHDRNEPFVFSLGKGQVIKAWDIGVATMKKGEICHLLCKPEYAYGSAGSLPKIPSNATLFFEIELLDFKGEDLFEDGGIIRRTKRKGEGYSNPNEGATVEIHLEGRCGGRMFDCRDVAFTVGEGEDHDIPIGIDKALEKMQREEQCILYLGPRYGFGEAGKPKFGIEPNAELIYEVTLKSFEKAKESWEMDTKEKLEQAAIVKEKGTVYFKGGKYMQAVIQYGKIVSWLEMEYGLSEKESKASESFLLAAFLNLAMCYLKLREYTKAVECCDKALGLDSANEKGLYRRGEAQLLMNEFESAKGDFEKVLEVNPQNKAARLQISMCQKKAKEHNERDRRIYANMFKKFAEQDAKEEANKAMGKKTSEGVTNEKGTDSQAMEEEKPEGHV

[3] = buffer
Description: Solubility of compound in aqueous solution

[4] = Inhibition of GST-tagged FKBP51 N381Y mutant (unknown origin) using NH2-EDASRMEEVD-COOH peptide as substrate preincubated for 15 mins followed by substrate addition measured after 15 mins by Alpha Screen assay; design: species or system Homo sapiens
[5] = target: Small glutamine-rich tetratricopeptide repeat-containing protein alpha (Homo sapiens, UniProt O43765); experiment: Inhibition of GST-tagged human SGTA expressed in Escherichia coli BL21 (DE3) using NH2-EDASRMEEVD-COOH peptide as substrate preincubated for 15 mins followed by substrate addition measured after 15 mins by Alpha Screen assay
Small glutamine-rich tetratricopeptide repeat-containing protein alpha, sequence (O43765 whole entry): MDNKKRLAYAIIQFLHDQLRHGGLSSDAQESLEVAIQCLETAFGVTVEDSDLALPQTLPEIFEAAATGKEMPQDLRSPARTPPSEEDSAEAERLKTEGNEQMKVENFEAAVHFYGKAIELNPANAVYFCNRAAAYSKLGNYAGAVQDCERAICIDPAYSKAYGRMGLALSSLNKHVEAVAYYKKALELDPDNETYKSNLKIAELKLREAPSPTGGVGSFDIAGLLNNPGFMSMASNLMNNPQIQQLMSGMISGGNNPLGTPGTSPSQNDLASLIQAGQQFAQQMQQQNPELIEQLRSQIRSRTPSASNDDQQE

[6] = target: Stress-induced-phosphoprotein 1 (Homo sapiens, UniProt P31948); experiment: Inhibition of GST-tagged human HOP expressed in Escherichia coli BL21 (DE3) using NH2-EDASRMEEVD-COOH peptide as substrate preincubated for 15 mins followed by substrate addition measured after 15 mins by Alpha Screen assay
Stress-induced-phosphoprotein 1, sequence (P31948 whole entry): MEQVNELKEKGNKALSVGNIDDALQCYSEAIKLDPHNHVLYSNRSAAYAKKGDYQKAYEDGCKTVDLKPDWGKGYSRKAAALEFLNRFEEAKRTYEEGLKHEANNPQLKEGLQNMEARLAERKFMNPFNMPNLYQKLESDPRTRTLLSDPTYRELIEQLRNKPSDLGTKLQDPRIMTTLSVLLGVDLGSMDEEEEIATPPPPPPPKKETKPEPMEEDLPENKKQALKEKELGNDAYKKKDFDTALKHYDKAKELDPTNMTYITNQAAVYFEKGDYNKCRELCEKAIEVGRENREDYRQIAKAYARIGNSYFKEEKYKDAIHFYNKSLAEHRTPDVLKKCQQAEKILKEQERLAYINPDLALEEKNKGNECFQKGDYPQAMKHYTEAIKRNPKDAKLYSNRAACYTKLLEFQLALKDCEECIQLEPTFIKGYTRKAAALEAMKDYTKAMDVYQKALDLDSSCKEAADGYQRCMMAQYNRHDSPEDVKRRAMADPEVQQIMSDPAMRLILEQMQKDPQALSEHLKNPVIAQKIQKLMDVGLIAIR

[7] = target: T3, Serine/threonine-protein phosphatase 5 (Homo sapiens, UniProt P53041); experiment: Inhibition of GST-tagged human PP5 expressed in Escherichia coli BL21 (DE3) using NH2-EDASRMEEVD-COOH peptide as substrate preincubated for 15 mins followed by substrate addition measured after 15 mins by Alpha Screen assay
T3 sequence (P53041 whole entry): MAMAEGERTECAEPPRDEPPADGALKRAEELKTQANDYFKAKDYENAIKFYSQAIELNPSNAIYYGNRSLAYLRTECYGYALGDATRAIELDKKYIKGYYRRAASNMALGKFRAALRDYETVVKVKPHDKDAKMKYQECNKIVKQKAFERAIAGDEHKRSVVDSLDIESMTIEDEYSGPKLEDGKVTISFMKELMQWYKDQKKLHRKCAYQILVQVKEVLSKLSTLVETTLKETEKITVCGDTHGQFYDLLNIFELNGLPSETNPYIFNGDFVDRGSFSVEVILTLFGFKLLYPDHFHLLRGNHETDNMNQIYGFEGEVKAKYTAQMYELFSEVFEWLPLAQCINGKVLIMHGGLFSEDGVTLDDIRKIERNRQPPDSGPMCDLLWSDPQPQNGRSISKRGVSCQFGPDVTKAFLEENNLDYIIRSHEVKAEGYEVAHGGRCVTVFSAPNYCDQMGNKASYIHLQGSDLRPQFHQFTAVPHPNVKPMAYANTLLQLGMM

[8] = target: T4, Mitochondrial import receptor subunit TOM70 (Homo sapiens, UniProt O94826); experiment: Inhibition of GST-tagged human TOM70 expressed in Escherichia coli BL21 (DE3) using NH2-EDASRMEEVD-COOH peptide as substrate preincubated for 15 mins followed by substrate addition measured after 15 mins by Alpha Screen assay
T4 sequence (O94826 whole entry): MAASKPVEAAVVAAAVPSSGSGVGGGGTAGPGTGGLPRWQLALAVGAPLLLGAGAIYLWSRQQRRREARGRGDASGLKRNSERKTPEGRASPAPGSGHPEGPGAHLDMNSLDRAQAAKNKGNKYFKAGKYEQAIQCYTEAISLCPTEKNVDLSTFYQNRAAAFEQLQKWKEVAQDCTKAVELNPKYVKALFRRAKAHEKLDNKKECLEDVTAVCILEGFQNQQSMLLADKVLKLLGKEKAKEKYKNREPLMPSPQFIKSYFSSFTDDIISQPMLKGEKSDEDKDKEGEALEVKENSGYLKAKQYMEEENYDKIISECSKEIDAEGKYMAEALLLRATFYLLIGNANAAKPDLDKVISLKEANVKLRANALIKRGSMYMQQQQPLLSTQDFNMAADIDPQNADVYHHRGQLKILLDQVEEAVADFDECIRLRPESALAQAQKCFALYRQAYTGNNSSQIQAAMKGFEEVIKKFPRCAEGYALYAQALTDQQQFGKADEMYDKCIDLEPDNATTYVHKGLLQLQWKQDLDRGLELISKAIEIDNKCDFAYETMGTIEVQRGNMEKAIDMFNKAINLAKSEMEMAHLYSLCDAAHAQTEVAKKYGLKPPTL

[9] = target: T5, E3 ubiquitin-protein ligase CHIP (Homo sapiens, UniProt Q9UNE7); experiment: Inhibition of GST-tagged human CHIP expressed in Escherichia coli BL21 (DE3) using NH2-EDASRMEEVD-COOH peptide as substrate preincubated for 15 mins followed by substrate addition measured after 15 mins by Alpha Screen assay
T5 sequence (Q9UNE7 whole entry): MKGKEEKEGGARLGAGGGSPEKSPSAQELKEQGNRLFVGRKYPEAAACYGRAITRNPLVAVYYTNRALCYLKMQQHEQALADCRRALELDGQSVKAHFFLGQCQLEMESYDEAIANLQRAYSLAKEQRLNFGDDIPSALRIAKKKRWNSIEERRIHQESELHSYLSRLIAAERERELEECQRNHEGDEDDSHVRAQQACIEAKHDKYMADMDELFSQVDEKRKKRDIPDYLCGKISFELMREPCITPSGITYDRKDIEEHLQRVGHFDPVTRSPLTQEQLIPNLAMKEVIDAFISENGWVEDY

[10] = target: T6, AH receptor-interacting protein (Homo sapiens, UniProt O00170); experiment: Inhibition of GST-tagged human AIP expressed in Escherichia coli BL21 (DE3) using NH2-EDASRMEEVD-COOH peptide as substrate preincubated for 15 mins followed by substrate addition measured after 15 mins by Alpha Screen assay
T6 sequence (O00170 whole entry): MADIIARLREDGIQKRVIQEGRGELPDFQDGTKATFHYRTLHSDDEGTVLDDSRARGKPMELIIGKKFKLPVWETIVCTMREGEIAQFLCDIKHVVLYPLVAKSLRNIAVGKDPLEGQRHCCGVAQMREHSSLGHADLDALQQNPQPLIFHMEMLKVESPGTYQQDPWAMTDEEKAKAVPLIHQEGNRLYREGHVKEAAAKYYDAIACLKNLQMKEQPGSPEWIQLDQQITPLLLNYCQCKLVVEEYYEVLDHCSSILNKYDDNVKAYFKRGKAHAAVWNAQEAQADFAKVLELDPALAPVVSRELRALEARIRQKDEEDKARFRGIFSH

[11] = target: T7, DnaJ homolog subfamily C member 7 (Homo sapiens, UniProt Q99615); experiment: Inhibition of GST-tagged human DNAJC7 expressed in Escherichia coli BL21 (DE3) using NH2-EDASRMEEVD-COOH peptide as substrate preincubated for 15 mins followed by substrate addition measured after 15 mins by Alpha Screen assay
T7 sequence (Q99615 whole entry): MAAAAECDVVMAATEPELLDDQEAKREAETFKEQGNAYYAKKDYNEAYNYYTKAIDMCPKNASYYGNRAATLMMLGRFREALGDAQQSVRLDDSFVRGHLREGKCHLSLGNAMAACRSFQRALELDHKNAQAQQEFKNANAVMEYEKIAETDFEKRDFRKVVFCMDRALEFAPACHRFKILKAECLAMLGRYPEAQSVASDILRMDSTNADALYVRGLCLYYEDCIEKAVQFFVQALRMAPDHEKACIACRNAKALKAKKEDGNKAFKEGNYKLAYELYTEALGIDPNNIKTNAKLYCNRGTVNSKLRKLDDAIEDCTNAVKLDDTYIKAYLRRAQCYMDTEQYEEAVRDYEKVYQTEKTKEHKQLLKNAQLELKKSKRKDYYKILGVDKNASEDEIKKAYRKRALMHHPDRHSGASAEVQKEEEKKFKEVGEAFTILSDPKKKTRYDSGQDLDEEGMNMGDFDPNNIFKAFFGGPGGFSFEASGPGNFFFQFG

[12] = Inhibition of GST-tagged FKBP51 Y355F mutant (unknown origin) using NH2-EDASRMEEVD-COOH peptide as substrate preincubated for 15 mins followed by substrate addition measured after 15 mins by Alpha Screen assay; design: species or system Homo sapiens

Compound: Cc1ccc(NC(=O)c2cc(NC(=O)c3ccccc3)cc(NC(=O)c3ccccc3)c2)cc1C
IC50 [1]: > 100 µM

Compound: CCOc1ccc2cc(C#N)c(SCC(=O)Nc3cccc(F)c3)nc2c1
IC50 [1]: 6 µM

Compound: CCS(=O)(=O)Nc1ccc(-c2nnc(SCC(=O)c3c(C)c(C)cc(C)c3C)o2)cc1
IC50 [1]: 6 µM

Compound: CCC1CCc2c(sc(NC(=O)CCCC(=O)Nc3sc4c(c3C(N)=O)CCC(CC)C4)c2C(N)=O)C1 (stereo not drawn)
solubility [3]: Insoluble | IC50 [4]: 0.05 µM | IC50 [5]: 0.1 µM | IC50 [6]: 10 µM | IC50 [7]: 0.03 µM | IC50 [8]: 1.5 µM | solubility: Insoluble | IC50 [9]: 1 µM | IC50 [10]: 10 µM | IC50 [11]: 1 µM | IC50 [12]: 40 µM

Compound: CCOC(=O)c1c(NC(=O)CSc2n[nH]c(CNc3ccccc3)n2)sc(C)c1C
IC50 [1]: 8 µM

Compound: CCOC(=O)CC(=O)CSc1nc(C)c2cc(OCC)ccc2n1
IC50 [1]: 9 µM

The remaining lines, values ahead:

IC50 [1]: 3 µM | IC50 [2]: 2 µM
Compound: CCc1nnc(NC(=O)CSc2nc(-c3ccc(C)cc3)cc(-c3ccc(OC)cc3)c2C#N)o1

IC50 [1]: 3 µM
Compound: CCOC(=O)c1c(NC(=O)CSc2nnc(-c3cccc(O)c3)o2)sc(C)c1C

IC50 [1]: 5 µM
Compound: CCC(=O)Nc1ccc(NC(=O)CSc2nc3cc4c(cc3cc2C)CCC4)cc1C

IC50 [1]: 3 µM
Compound: CCC(=O)Nc1ccc(NC(=O)CSc2nc3cc4c(cc3cc2C)CCC4)cc1

IC50 [1]: 6 µM
Compound: O=C(CSc1nnc(-c2ccc(S(=O)(=O)N3CCCC3)cc2)o1)Nc1ccc(F)cc1

IC50 [1]: 5 µM
Compound: CCOc1ccc2cc(C#N)c(SCC(=O)NCCc3ccccc3)nc2c1
